Laboratory results from patent US20040052750A1, “Compositions for prevention and alleviation of skin wrinkles” (priority 2000, published 2004).

What was measured:
[1] = system: hairless mice; experiment: Alleviating photo-induced wrinkles in hairless mice; type: in vivo; details: twice a day for 6 weeks, 10 per group
Experimental: Mice were placed into 21 experimental groups and 3 control groups, with 10 rats per group. […] The experimental protocol is as follows. Hairless mice were radiated using a simulated sunlight at a dose of 2 MED (double Minimal Erythema Dose) 3 days a week for 10 weeks, thereby generating wrinkles. Then, respective active ingredients or the solvent only were applied at a volume of 100 μl each, twice a day for 6 weeks. Degrees of wrinkle reduction were determined. The determination was performed by visually observing the compound-applied region with naked eyes, and the region was photographed. The degrees of alleviation of wrinkles in the compound-treatment groups (experimental groups) were compared with those of the control group and were determined as one of 4 stages, that is, none (Score 0), slight (Score 1), moderate (Score 2) and high (Score 3), and the corresponding mice were counted.

[2] = system: fibroblasts derived from a human; experiment: Promoting collagen production in fibroblasts (3H-proline incorporation into collagenase-sensitive protein); type: cell-based; details: control = 100%
Experimental: The experimental protocol in detail is as follows.
Human-derived fibroblasts were transferred to a 24 well plate and cultured in a medium containing 10% fetal bovine serum (FBS) for 24 hours, followed by washing twice with phosphate buffered saline. […] After the incubation was terminated, cells from each group were harvested and two fractions of each culture were prepared. One fraction from each culture was treated with collagenase. To all fractions was added trichloroacetic acid to precipitate proteins. The amount of radioactivity incorporated into collagenase-sensitive protein was measured and compared with that of the other fraction which was not treated with collagenase. The difference in radioactivity was attributed to the promoting effect of the compound.

[3] = system: hairless mice; experiment: Inhibiting the generation of wrinkles in hairless mice (simulated sunlight); type: in vivo; details: 10 per group
Experimental: 6-week hairless mice were placed into 21 experimental groups and 3 control groups, with 10 rats per group. […] The experimental protocol in detail is as follows. Hairless mice were radiated using simulated sunlight at a dose of 2 MED (double Minimal Erythema Dose) 3 days a week for […], thereby generating wrinkles. Respective active ingredients or the solvent only were applied twice every day (specifically, on radiation days, the application was performed at 30 min before and after the radiation), at a volume of 100 μl each for 10 weeks from the first radiation day. Degrees of inhibition of generated wrinkles were determined. The determination was performed by visual observation with naked eyes and photography.

## COC(=O)C1=C(C)NC(C)=C(C(=O)OC)C1c1ccccc1[N+](=O)[O-] [Nifedipine]
[1]; 10^-3 M
  Reduction of wrinkles, Score 0 (none): 0 number of mice
  Reduction of wrinkles, Score 1 (slight): 2 number of mice
  Reduction of wrinkles, Score 2 (moderate): 2 number of mice
  Reduction of wrinkles, Score 3 (high): 6 number of mice
[1]; 10^-5 M
  Reduction of wrinkles, Score 0 (none): 0 number of mice
  Reduction of wrinkles, Score 1 (slight): 2 number of mice
  Reduction of wrinkles, Score 2 (moderate): 2 number of mice
  Reduction of wrinkles, Score 3 (high): 6 number of mice
[1]; 10^-8 M
  Reduction of wrinkles, Score 0 (none): 0 number of mice
  Reduction of wrinkles, Score 1 (slight): 2 number of mice
  Reduction of wrinkles, Score 2 (moderate): 3 number of mice
  Reduction of wrinkles, Score 3 (high): 5 number of mice
[2]; 10^-5 M
  Effect of promoting collagen production in fibroblasts (rate of collagen production): 358.16%
[2]; 10^-6 M
  Effect of promoting collagen production in fibroblasts (rate of collagen production): 330.30%
[2]; 10^-7 M
  Effect of promoting collagen production in fibroblasts (rate of collagen production): 292.21%
[2]; 10^-8 M
  Effect of promoting collagen production in fibroblasts (rate of collagen production): 204.31%
[3]; 10^-3 M
  Inhibition of wrinkles, Score 0 (none): 0 number of mice
  Inhibition of wrinkles, Score 1 (slight): 2 number of mice
  Inhibition of wrinkles, Score 2 (moderate): 3 number of mice
  Inhibition of wrinkles, Score 3 (high): 5 number of mice
[3]; 10^-5 M
  Inhibition of wrinkles, Score 0 (none): 0 number of mice
  Inhibition of wrinkles, Score 1 (slight): 2 number of mice
  Inhibition of wrinkles, Score 2 (moderate): 3 number of mice
  Inhibition of wrinkles, Score 3 (high): 5 number of mice
[3]; 10^-8 M
  Inhibition of wrinkles, Score 0 (none): 0 number of mice
  Inhibition of wrinkles, Score 1 (slight): 2 number of mice
  Inhibition of wrinkles, Score 2 (moderate): 3 number of mice
  Inhibition of wrinkles, Score 3 (high): 5 number of mice
